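How tested: cells in 96-well plates exposed to compound for 48 hours at five concentrations. Definition used: TGI = concentration required for complete inhibition of growth.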
Assays:
Experiment in all cases: NCI anticancer screen, dose series, 48 h
MCF7 breast = system: MCF7 breast
BT-549 breast = system: BT-549 breast
UACC-62 melanoma = system: UACC-62 melanoma
PC-3 prostate = system: PC-3 prostate
UACC-257 melanoma = system: UACC-257 melanoma
TK-10 renal = system: TK-10 renal
OVCAR-5 ovarian = system: OVCAR-5 ovarian
SF-268 CNS = system: SF-268 CNS
HCT-15 colon = system: HCT-15 colon
SF-539 CNS = system: SF-539 CNS
SK-MEL-2 melanoma = system: SK-MEL-2 melanoma
EKVX NSCLC = system: EKVX NSCLC
MDA-MB-231 breast = system: MDA-MB-231 breast
786-0 renal = system: 786-0 renal
ACHN renal = system: ACHN renal
SW-620 colon = system: SW-620 colon
IGROV1 ovarian = system: IGROV1 ovarian
HOP-92 NSCLC = system: HOP-92 NSCLC
HCT-116 colon = system: HCT-116 colon
NCI-H23 lung = system: NCI-H23 lung
T-47D breast = system: T-47D breast
UO-31 renal = system: UO-31 renal
SNB-19 CNS = system: SNB-19 CNS
A549 NSCLC = system: A549 NSCLC
OVCAR-3 ovarian = system: OVCAR-3 ovarian
MALME-3M melanoma = system: MALME-3M melanoma
COLO 205 colon = system: COLO 205 colon
RXF 393 renal = system: RXF 393 renal
RPMI-8226 leukemia = system: RPMI-8226 leukemia
LOX IMVI melanoma = system: LOX IMVI melanoma
K-562 leukemia = system: K-562 leukemia
NCI-H522 lung = system: NCI-H522 lung
SK-OV-3 ovarian = system: SK-OV-3 ovarian
U251 CNS = system: U251 CNS
SK-MEL-28 melanoma = system: SK-MEL-28 melanoma
CCRF-CEM leukemia = system: CCRF-CEM leukemia
SNB-75 CNS = system: SNB-75 CNS
SK-MEL-5 melanoma = system: SK-MEL-5 melanoma
CAKI-1 renal = system: CAKI-1 renal
A498 renal = system: A498 renal
NCI/ADR-RES ovarian = system: NCI/ADR-RES ovarian
MOLT-4 leukemia = system: MOLT-4 leukemia
HOP-62 NSCLC = system: HOP-62 NSCLC
M14 melanoma = system: M14 melanoma
OVCAR-4 ovarian = system: OVCAR-4 ovarian
MDA-MB-435 = system: MDA-MB-435
MDA-N = system: MDA-N
NCI-H460 lung = system: NCI-H460 lung
HT29 colon = system: HT29 colon
SF-295 CNS = system: SF-295 CNS
OVCAR-8 ovarian = system: OVCAR-8 ovarian
NCI-H226 lung = system: NCI-H226 lung
HL-60(TB) leukemia = system: HL-60(TB) leukemia
HS 578T breast = system: HS 578T breast
KM12 colon = system: KM12 colon
SR leukemia = system: SR leukemia
HCC-2998 colon = system: HCC-2998 colon
DU-145 prostate = system: DU-145 prostate

c1ccc(C2=Nc3nc4ccccc4n3C(c3ccccc3)C2)cc1 (stereo unspecified)
TGI (MCF7 breast): > 100 µM | TGI (BT-549 breast): > 100 µM | TGI (UACC-62 melanoma): > 100 µM | TGI (PC-3 prostate): > 100 µM | TGI (UACC-257 melanoma): > 100 µM | TGI (TK-10 renal): > 100 µM | TGI (OVCAR-5 ovarian): > 100 µM | TGI (SF-268 CNS): > 100 µM | TGI (HCT-15 colon): > 100 µM | TGI (SF-539 CNS): > 100 µM | TGI (SK-MEL-2 melanoma): > 100 µM | TGI (EKVX NSCLC): > 100 µM | TGI (MDA-MB-231 breast): > 100 µM | TGI (786-0 renal): > 100 µM | TGI (ACHN renal): > 100 µM | TGI (SW-620 colon): > 100 µM | TGI (IGROV1 ovarian): > 100 µM | TGI (HOP-92 NSCLC): > 100 µM | TGI (HCT-116 colon): > 100 µM | TGI (NCI-H23 lung): > 100 µM | TGI (T-47D breast): > 100 µM | TGI (UO-31 renal): > 100 µM | TGI (SNB-19 CNS): > 100 µM | TGI (A549 NSCLC): > 100 µM | TGI (OVCAR-3 ovarian): > 100 µM | TGI (MALME-3M melanoma): > 100 µM | TGI (COLO 205 colon): > 100 µM | TGI (RXF 393 renal): > 100 µM | TGI (RPMI-8226 leukemia): > 100 µM | TGI (LOX IMVI melanoma): > 100 µM | TGI (K-562 leukemia): > 100 µM | TGI (NCI-H522 lung): > 100 µM | TGI (SK-OV-3 ovarian): > 100 µM | TGI (U251 CNS): > 100 µM | TGI (SK-MEL-28 melanoma): > 100 µM | TGI (CCRF-CEM leukemia): > 100 µM | TGI (SNB-75 CNS): > 100 µM | TGI (SK-MEL-5 melanoma): > 100 µM | TGI (CAKI-1 renal): > 100 µM | TGI (A498 renal): > 100 µM | TGI (NCI/ADR-RES ovarian): > 100 µM | TGI (MOLT-4 leukemia): > 100 µM | TGI (HOP-62 NSCLC): > 100 µM | TGI (M14 melanoma): > 100 µM | TGI (OVCAR-4 ovarian): > 100 µM | TGI (MDA-MB-435): > 100 µM | TGI (MDA-N): > 100 µM | TGI (NCI-H460 lung): > 100 µM | TGI (HT29 colon): > 100 µM | TGI (SF-295 CNS): > 100 µM | TGI (OVCAR-8 ovarian): > 100 µM | TGI (NCI-H226 lung): > 100 µM | TGI (HL-60(TB) leukemia): > 100 µM | TGI (HS 578T breast): > 100 µM | TGI (KM12 colon): > 100 µM | TGI (SR leukemia): > 100 µM

COc1cc(C2SCC(=O)N2c2ccc(-n3c(-c4ccccc4)nc4ccccc4c3=O)cc2)ccc1O (stereo unspecified)
TGI (MCF7 breast): > 100 µM | TGI (BT-549 breast): > 100 µM | TGI (UACC-62 melanoma): > 100 µM | TGI (PC-3 prostate): > 100 µM | TGI (UACC-257 melanoma): > 100 µM | TGI (TK-10 renal): > 100 µM | TGI (OVCAR-5 ovarian): > 100 µM | TGI (SF-268 CNS): > 100 µM | TGI (HCT-15 colon): > 100 µM | TGI (SF-539 CNS): > 100 µM | TGI (SK-MEL-2 melanoma): > 100 µM | TGI (EKVX NSCLC): > 100 µM | TGI (MDA-MB-231 breast): > 100 µM | TGI (786-0 renal): > 100 µM | TGI (ACHN renal): > 100 µM | TGI (SW-620 colon): > 100 µM | TGI (HOP-92 NSCLC): 68.9 µM | TGI (HCT-116 colon): > 100 µM | TGI (NCI-H23 lung): > 100 µM | TGI (T-47D breast): > 100 µM | TGI (UO-31 renal): 97.7 µM | TGI (SNB-19 CNS): > 100 µM | TGI (A549 NSCLC): > 100 µM | TGI (OVCAR-3 ovarian): > 100 µM | TGI (MALME-3M melanoma): > 100 µM | TGI (COLO 205 colon): > 100 µM | TGI (RPMI-8226 leukemia): > 100 µM | TGI (LOX IMVI melanoma): > 100 µM | TGI (K-562 leukemia): > 100 µM | TGI (NCI-H522 lung): > 100 µM | TGI (SK-OV-3 ovarian): > 100 µM | TGI (HCC-2998 colon): > 100 µM | TGI (U251 CNS): > 100 µM | TGI (DU-145 prostate): > 100 µM | TGI (SK-MEL-28 melanoma): > 100 µM | TGI (CCRF-CEM leukemia): > 100 µM | TGI (SK-MEL-5 melanoma): > 100 µM | TGI (CAKI-1 renal): > 100 µM | TGI (A498 renal): > 100 µM | TGI (NCI/ADR-RES ovarian): > 100 µM | TGI (MOLT-4 leukemia): > 100 µM | TGI (HOP-62 NSCLC): > 100 µM | TGI (M14 melanoma): > 100 µM | TGI (OVCAR-4 ovarian): > 100 µM | TGI (MDA-MB-435): > 100 µM | TGI (MDA-N): > 100 µM | TGI (NCI-H460 lung): > 100 µM | TGI (HT29 colon): > 100 µM | TGI (SF-295 CNS): > 100 µM | TGI (OVCAR-8 ovarian): > 100 µM | TGI (NCI-H226 lung): > 100 µM | TGI (HL-60(TB) leukemia): > 100 µM | TGI (HS 578T breast): > 100 µM | TGI (KM12 colon): > 100 µM | TGI (SR leukemia): > 100 µM

Reference: PubChem BioAssay (NCI)
